ChEMBL document CHEMBL5291721, “A preclinical secondary pharmacology resource illuminates target-adverse drug reaction associations of marketed drugs” (Nat Commun, 2023)

What was measured:
[1] = biological target: T1, Estrogen receptor (Homo sapiens, UniProt P03372)
T1 sequence (P03372 whole entry): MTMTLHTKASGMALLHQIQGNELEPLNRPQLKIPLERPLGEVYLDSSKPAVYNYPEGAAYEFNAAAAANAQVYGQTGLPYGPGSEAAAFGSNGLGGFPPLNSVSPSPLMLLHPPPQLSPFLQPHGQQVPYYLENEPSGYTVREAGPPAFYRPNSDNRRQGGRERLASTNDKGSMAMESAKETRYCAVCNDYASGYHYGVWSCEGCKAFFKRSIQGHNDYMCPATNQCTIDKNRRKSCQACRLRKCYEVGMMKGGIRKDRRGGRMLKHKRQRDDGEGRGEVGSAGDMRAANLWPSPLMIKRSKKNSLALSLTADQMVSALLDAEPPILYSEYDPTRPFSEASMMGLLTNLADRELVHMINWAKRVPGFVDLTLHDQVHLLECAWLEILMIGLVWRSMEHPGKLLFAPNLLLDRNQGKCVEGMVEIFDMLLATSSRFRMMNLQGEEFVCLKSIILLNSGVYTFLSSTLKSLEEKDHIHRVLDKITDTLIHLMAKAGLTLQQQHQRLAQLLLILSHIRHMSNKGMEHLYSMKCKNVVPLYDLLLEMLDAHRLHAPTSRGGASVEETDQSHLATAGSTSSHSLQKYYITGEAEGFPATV

[2] = biological target: Vascular endothelial growth factor receptor 2 (Homo sapiens, UniProt P35968); type: functional
[3] = biological target: Beta-2 adrenergic receptor (Homo sapiens, UniProt P07550)
[4] = biological target: T2, Amine oxidase [flavin-containing] A (Homo sapiens, UniProt P21397); type: functional
T2 sequence (P21397 whole entry): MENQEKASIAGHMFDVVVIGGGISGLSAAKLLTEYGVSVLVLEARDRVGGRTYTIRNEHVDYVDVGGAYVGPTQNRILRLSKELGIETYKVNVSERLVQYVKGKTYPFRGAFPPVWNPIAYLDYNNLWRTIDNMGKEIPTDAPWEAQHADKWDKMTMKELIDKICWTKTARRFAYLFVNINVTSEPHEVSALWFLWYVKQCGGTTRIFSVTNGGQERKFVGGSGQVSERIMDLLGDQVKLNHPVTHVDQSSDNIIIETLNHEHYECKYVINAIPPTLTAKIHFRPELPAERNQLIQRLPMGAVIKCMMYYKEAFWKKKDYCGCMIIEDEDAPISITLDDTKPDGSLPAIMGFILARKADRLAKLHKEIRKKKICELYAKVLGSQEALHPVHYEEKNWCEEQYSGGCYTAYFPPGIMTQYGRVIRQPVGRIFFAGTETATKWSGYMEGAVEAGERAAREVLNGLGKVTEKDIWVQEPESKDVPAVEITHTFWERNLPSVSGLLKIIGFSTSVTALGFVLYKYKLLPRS

[5] = biological target: T3, Alpha-2A adrenergic receptor (Homo sapiens, UniProt P08913); type: functional, cell-based
T3 sequence (P08913 whole entry): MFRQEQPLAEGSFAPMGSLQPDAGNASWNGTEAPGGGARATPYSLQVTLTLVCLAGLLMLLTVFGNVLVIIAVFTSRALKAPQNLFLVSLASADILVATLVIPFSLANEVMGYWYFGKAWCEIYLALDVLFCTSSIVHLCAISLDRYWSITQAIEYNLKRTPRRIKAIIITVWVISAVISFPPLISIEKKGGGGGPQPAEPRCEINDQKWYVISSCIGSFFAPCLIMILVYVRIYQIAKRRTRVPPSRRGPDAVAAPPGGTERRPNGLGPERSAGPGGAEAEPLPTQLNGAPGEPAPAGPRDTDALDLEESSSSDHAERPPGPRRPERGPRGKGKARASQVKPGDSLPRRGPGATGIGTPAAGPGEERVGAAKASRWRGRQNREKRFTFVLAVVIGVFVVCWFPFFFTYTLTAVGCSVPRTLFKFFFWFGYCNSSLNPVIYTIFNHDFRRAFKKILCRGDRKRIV

[6] = biological target: T4, Muscarinic acetylcholine receptor M2 (Homo sapiens, UniProt P08172); type: functional, cell-based
T4 sequence (P08172 whole entry): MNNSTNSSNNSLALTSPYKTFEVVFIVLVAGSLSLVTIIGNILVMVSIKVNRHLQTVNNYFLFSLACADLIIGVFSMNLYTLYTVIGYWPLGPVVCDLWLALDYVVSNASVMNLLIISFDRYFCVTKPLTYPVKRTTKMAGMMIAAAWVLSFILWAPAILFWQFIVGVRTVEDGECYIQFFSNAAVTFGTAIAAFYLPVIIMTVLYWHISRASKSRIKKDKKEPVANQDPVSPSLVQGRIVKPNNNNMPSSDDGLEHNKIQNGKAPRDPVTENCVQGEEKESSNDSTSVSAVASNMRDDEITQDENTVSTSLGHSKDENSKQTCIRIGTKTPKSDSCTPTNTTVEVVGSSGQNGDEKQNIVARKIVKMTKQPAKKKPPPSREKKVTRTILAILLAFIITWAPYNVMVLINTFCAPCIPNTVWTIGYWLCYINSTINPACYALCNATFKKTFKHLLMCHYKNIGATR

[7] = biological target: T4, Muscarinic acetylcholine receptor M2; type: functional, cell-based; remark: listed apart in the source
[8] = biological target: T5, 5-hydroxytryptamine receptor 1A (Homo sapiens, UniProt P08908); type: functional, cell-based
T5 sequence (P08908 whole entry): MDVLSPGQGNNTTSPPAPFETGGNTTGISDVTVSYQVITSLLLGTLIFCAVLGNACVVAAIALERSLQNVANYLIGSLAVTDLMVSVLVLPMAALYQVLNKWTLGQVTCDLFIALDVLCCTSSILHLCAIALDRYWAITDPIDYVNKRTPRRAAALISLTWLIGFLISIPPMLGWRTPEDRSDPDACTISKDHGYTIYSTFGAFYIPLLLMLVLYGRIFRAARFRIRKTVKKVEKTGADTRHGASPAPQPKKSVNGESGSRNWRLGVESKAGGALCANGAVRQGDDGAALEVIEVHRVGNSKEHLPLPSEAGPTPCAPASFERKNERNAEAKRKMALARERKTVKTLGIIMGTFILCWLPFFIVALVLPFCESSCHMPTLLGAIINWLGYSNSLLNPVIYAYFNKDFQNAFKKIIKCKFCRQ
Note: assay procedure not described here.

Chain of Vascular endothelial growth factor receptor 2 (P35968 whole entry): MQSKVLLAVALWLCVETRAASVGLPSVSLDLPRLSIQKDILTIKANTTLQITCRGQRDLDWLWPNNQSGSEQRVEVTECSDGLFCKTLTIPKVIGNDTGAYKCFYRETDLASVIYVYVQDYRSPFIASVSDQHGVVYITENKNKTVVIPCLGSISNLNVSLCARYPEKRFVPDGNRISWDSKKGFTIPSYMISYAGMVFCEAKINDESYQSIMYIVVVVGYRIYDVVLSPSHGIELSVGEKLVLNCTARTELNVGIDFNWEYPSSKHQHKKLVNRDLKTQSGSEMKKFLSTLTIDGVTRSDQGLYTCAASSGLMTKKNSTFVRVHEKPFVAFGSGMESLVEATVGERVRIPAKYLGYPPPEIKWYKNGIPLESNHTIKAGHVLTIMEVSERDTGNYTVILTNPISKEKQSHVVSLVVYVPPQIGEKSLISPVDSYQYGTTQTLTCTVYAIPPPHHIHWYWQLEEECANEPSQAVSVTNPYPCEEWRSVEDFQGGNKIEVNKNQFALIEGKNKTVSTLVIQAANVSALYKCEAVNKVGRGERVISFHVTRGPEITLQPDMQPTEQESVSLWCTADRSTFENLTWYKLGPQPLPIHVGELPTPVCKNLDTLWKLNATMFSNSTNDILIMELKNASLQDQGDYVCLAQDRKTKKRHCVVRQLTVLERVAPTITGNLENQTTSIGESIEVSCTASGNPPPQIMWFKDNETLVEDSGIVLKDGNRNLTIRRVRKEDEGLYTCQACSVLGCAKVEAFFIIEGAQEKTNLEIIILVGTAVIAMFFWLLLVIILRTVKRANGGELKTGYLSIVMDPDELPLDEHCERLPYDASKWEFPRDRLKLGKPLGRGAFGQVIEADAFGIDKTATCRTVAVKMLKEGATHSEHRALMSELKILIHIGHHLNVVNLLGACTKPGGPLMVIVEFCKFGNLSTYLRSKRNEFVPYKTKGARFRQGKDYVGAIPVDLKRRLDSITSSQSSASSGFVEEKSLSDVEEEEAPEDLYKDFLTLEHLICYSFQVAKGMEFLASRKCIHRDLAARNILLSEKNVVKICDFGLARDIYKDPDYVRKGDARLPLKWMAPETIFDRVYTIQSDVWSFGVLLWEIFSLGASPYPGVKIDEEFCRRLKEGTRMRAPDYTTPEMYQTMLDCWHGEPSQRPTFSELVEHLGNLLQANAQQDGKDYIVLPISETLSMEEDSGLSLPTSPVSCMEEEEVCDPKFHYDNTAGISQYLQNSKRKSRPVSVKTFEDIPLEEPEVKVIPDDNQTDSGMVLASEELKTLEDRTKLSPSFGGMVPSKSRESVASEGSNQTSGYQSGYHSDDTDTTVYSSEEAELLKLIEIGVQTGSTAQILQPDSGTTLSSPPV
Chain of Beta-2 adrenergic receptor (P07550 whole entry): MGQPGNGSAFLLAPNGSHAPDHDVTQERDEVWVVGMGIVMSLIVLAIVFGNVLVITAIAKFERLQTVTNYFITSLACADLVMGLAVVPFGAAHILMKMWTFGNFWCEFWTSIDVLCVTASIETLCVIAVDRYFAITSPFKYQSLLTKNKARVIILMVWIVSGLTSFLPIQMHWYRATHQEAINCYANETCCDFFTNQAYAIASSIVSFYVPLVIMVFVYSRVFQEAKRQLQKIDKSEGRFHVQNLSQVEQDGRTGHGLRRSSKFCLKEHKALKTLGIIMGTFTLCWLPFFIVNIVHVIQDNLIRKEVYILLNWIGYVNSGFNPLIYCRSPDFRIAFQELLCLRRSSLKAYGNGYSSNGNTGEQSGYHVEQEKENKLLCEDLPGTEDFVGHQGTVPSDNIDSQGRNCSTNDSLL

Compound	AC50 [1] [µM]	AC50 [2] [µM]	AC50 [3] [µM]	AC50 [4] [µM]	AC50 [5] [µM]	AC50 [6] [µM]	AC50 [7] [µM]	AC50 [8] [µM]
Cc1cc2c(cc1S(N)(=O)=O)S(=O)(=O)CCC2	> 30	> 30	–	–	–	–	–	–
C[C@H](N[C@@H](CCc1ccccc1)C(=O)O)C(=O)N1Cc2ccccc2C[C@H]1C(=O)O	> 30	> 30	–	–	–	–	–	–
O=C(O)[C@@H]1C[C@@H](O)CN1	> 30	> 30	–	–	–	–	–	–
CC1(C)S[C@@H]2[C@H](/N=C/N3CCCCCC3)C(=O)N2[C@H]1C(=O)O [AMDINOCILLIN]	> 30	> 30	–	–	–	–	–	–
CC(=O)[C@]1(N)Cc2c(O)c3c(c(O)c2[C@@H](O[C@H]2C[C@H](O)[C@H](O)CO2)C1)C(=O)c1ccccc1C3=O [AMRUBICIN]	> 30	> 30	–	–	–	–	–	–
NC(=O)[C@@H]1CC[C@@H]2CN1C(=O)N2OS(=O)(=O)O [AVIBACTAM]	> 30	> 30	–	–	–	–	–	–
CC(=O)OC[C@H]1O[C@@H](n2ncc(=O)[nH]c2=O)[C@H](OC(C)=O)[C@@H]1OC(C)=O [AZARIBINE]	> 30	> 30	–	–	–	–	–	–
O=C(/C=C/c1cccc(S(=O)(=O)Nc2ccccc2)c1)NO [BELINOSTAT]	27.9	–	> 10	> 10	–	–	–	–
CC(C)(C)NC(=O)N[C@H](C(=O)N1C[C@H]2[C@@H]([C@H]1C(=O)NC(CC1CCC1)C(=O)C(N)=O)C2(C)C)C(C)(C)C (stereo partly specified) [BOCEPREVIR]	> 30	> 30	–	–	–	–	–	–
NC[C@H]1CC[C@H](C(=O)Oc2ccc(CCC(=O)O)cc2)CC1 [CETRAXATE]	> 30	–	–	> 30	> 30	> 30	> 30	> 30
C=C1CC[C@H](O)C/C1=C/C=C1\CCC[C@]2(C)[C@@H]([C@H](C)CCCC(C)C)CC[C@@H]12 [CHOLECALCIFEROL]	> 30	> 30	–	–	–	–	–	–
C[C@H](CCC(=O)O)[C@H]1CC[C@H]2[C@@H]3[C@H](O)C[C@@H]4C[C@H](O)CC[C@]4(C)[C@H]3C[C@H](O)[C@]12C [CHOLIC ACID]	> 30	> 30	–	–	–	–	–	–
Cc1ncc2c(c1O)COC2c1ccc(Cl)cc1 (stereo unspecified) [CICLETANINE]	> 30	> 30	–	–	–	–	–	–
N#Cc1ccc(Oc2ccc3c(c2)COB3O)cc1 [CRISABOROLE]	> 30	> 30	–	–	–	–	–	–
CC(=O)O[C@H]1Cc2ccccc2N(C(N)=O)c2ccccc21 [ESLICARBAZEPINE ACETATE]	> 30	> 30	–	–	–	–	–	–
CC(O)(P(=O)(O)O)P(=O)(O)O [ETIDRONIC ACID]	–	> 30	–	–	–	–	–	–
Cc1ccc(S(=O)(=O)NC(=O)NC2CCCCC2)cc1 [GLYCYCLAMIDE]	> 30	> 30	–	–	–	–	–	–
CN1CCCN(C(c2ccccc2)c2ccc(Cl)cc2)CC1 (stereo unspecified) [HOMOCHLORCYCLIZINE]	> 30	> 30	–	–	–	–	–	–

Compound	AC50 [1] [µM]	AC50 [2] [µM]	AC50 [3] [µM]	AC50 [4] [µM]	AC50 [5] [µM]	AC50 [6] [µM]	AC50 [7] [µM]	AC50 [8] [µM]
CC(=O)OCC(=O)[C@@]1(O)CC[C@H]2[C@@H]3CCC4=CC(=O)CC[C@]4(C)[C@H]3[C@@H](O)C[C@@]21C [HYDROCORTISONE ACETATE]	–	> 30	–	–	–	–	–	–
CC(COc1ccccc1)NC(C)C(O)c1ccc(O)cc1 (stereo unspecified) [ISOXSUPRINE]	> 30	> 30	–	–	–	–	–	–
O=C(CCC/C=C\C[C@@H]1[C@@H](CC[C@@H](O)CCc2ccccc2)[C@H](O)C[C@@H]1O)OCCCCO[N+](=O)[O-] [LATANOPROSTENE BUNOD]	> 30	–	–	–	–	–	–	–
Cc1oc(=O)oc1COC(=O)[C@@H]1N2C(=O)[C@@H](NC(=O)[C@H](N)c3ccccc3)[C@H]2SC1(C)C [LENAMPICILLIN]	> 30	> 30	–	–	–	–	–	–
COc1ccc(OC)c(C(O)C(C)N)c1 (stereo unspecified) [METHOXAMINE]	> 30	> 30	–	–	–	–	–	–
COC(=O)C[C@](O)(CCCC(C)(C)O)C(=O)O[C@@H]1C(OC)=C[C@]23CCCN2CCc2cc4c(cc2[C@H]13)OCO4 [OMACETAXINE MEPESUCCINATE]	> 30	–	–	–	–	–	–	–
COc1cccc(C(=O)CCN[C@@H](C)[C@H](O)c2ccccc2)c1 [OXYFEDRINE]	–	> 30	–	–	–	–	–	–
Cc1cccc(C)c1NC(=O)CC12CCCN1CCC2 [PILSICAINIDE]	–	–	> 30	> 30	> 30	> 30	> 30	> 30
CN[C@@H](C)[C@@H](O)c1ccccc1 [PSEUDOEPHEDRINE]	–	–	> 10	> 10	> 10	> 10	> 10	> 10
CCCN1CC(NS(=O)(=O)N(CC)CC)CC2Cc3c(O)cccc3CC21 (stereo unspecified) [QUINAGOLIDE]	–	–	> 30	> 30	> 30	> 30	> 30	1.1
COC(=O)[C@H]1[C@H]2C[C@@H]3c4[nH]c5cc(OC)ccc5c4CCN3C[C@H]2C[C@@H](OC(=O)c2cc(OC)c(OC)c(OC)c2)[C@@H]1OC [RESERPINE]	–	> 30	> 10	> 30	> 10	> 10	> 10	> 10
C[C@]12CCC(=O)C[C@@H]1CC[C@@H]1[C@@H]2CC[C@]2(C)[C@@H](O)CC[C@@H]12 [STANOLONE]	–	–	> 30	> 30	> 30	> 30	> 30	> 30
COc1cc(C)c2c(Oc3cccc(C(F)(F)F)c3)c(OC)cc(NC(C)CCCN)c2n1 (stereo unspecified) [TAFENOQUINE]	18.4	–	–	–	–	–	–	–
O=S1(=O)CCN(CN2CCS(=O)(=O)NC2)CN1 [TAUROLIDINE]	> 30	–	–	> 30	> 30	> 30	> 30	> 30
C[C@]12C=CC(=O)C=C1CC[C@@H]1[C@@H]2CC[C@]2(C)OC(=O)CC[C@@H]12 [TESTOLACTONE]	–	–	> 10	> 10	> 30	> 10	> 10	> 30
COc1ccc2c(C(=S)N(C)CC(=O)O)cccc2c1C(F)(F)F [TOLRESTAT]	> 30	–	–	–	–	–	–	–
CCOC(=O)c1c(CSc2ccccc2)n(C)c2cc(Br)c(O)c(CN(C)C)c12 [UMIFENOVIR]	–	–	> 30	> 30	> 30	> 30	28	> 30
